{
  "source": "patent US20050004017A1",
  "about": "“Methods and compositions for treating hcap associated diseases” (priority 2001, published 2005)",
  "tested_on": "HCAP interaction with ErbB-2",
  "experiment": "Co-immunoprecipitation of HCAP with anti-ErbB-2 antibody from radicicol-treated T47D cells",
  "format": "cell-based",
  "conditions": "T47D cells treated with radicicol (3 μM) for 0, 3 or 6 hours; gel electrophoresis, bands identified by mass spectroscopy",
  "protocol": "Band numbers 30 and 35 were identified by mass spectroscopic analysis as hepatocellular associated protein (HCAP). […] T47D cells, a breast cancer cell line that is mutant for the p53 tumor suppressor gene and ErbB-2 positive, were treated with radicicol (RA) for 0, 3 or 6 hours, and then proteins were immunoprecipitated using an anti-ErbB-2 antibody and resolved by gel electrophoresis. […] Band nos. 30 and 35 were identified by mass spectroscopic analysis to be hepatocarcinoma associated protein (HCAP). The amount of HCAP immunoprecipitated with anti-ErbB-2 antibody decreased in the presence of RA.",
  "data": [
    {"smiles": "C[C@@H]1C[C@H]2O[C@@H]2/C=C\\C=C\\C(=O)Cc2c(Cl)c(O)cc(O)c2C(=O)O1", "note": "[radicicol, Radicicol]", "values": [
      {"measurement": "amount of HCAP immunoprecipitated with anti-ErbB-2 antibody", "result": "decreased"}
    ]}
  ]
}
